The values below come from US20240382459A1, “MECHANISMS OF ANDROGEN RECEPTOR-CENTERED TRANSCRIPTIONAL NETWORKS IN REGULATING CD8+ T CELL EXHAUSTION AND THERAPEUTIC APPLICATIONS IN CANCER” (Ohio State Innovation Foundation, priority 2023, published 2024).

Test [1] has as its system human Tcf7 promoter. To be noted: HEK293FT with or without EGFP-C1-AR, 24 h, 500 ng/mL testosterone or 50 nM DHT.
Procedure: Renilla and Red Firefly luciferase activity, the latter of which was regulated by a 1 kb long WT or mutant Tcf7 promoter sequence lacking putative AREs (FIG. 13A), were simultaneously measured in control or EGFP-C1-AR overexpressing HEK293FT post 24 h stimulation with 500 ng/mL testosterone (T) or 50 nM DHT.
Red Firefly luciferase activity, as regulated by a 1 kb long human WT or mutant Tcf7 promoter sequence lacking putative AREs, was measured in EGFP-C1-AR overexpressing HEK293FT cells post 24 h stimulation with 500 ng/mL testosterone or vehicle control.
WT or mutated human Tcf7 promoter sequence of one kb upstream from its transcriptional start site was cloned into the pMCS-Red Firefly Luciferase vector (Thermo Fisher). Mutants lacked individual (“Mut 1-4”) or all putative AR binding sites. Briefly, 40,000 HEK293FT cells were grown on a 96 well plate at 80% confluence. Cells were transfected with 200 ng of pEGFP-C1-human AR (a gift from Michael Mancini, Addgene plasmid #28235) and indicated Tcf7 luciferase reporter plasmids using Lipofectamine 2000 (Thermo Fisher) on Day 0 in triplicates. Renilla luciferase gene expression was used to ensure transfection efficiency (Thermo Fisher). […] Cells were then harvested and luciferase activity was analyzed by using Dual-Luciferase Reporter Assay System (Promega).
The subject of test [2] is AR-overexpressing Jurkat cells. To be noted: 100 nM, re-stimulated Days 0, 3, 6, over 9 days.
Procedure: Data are mean±SEM. Statistical significance was determined by Student's t test. **p≤0.01, ****p≤0.0001.
Empty vector and androgen receptor-expressing Jurkat cells were seeded into six well plates (Gibco) at 2×10^5 cells per well and treated with 100 nM testosterone (Sigma) or DHT (Millipore), alongside methanol vehicle control (Thermo Fisher). Every three days, cells were counted using the BioRad TC20 automated cell counter, passaged, and re-stimulated with the same androgen concentrations over a time course of 3, 6, and 9 days.
Test [3] has as its system CD8+ tumor-infiltrating lymphocytes (TILs) from female patients with bladder cancer. As to the kind of experiment: AR blockade of in vitro expanded CD8+ bladder cancer TILs, flow cytometry. In kind it is cell-based, human. To be noted: enzalutamide (50 uM in the presence of 10 nM DHT; varying doses), ex vivo expanded TILs. The text has this: FIGS. 19A, 19B, 19C, 19D and 19E show androgen receptor blockade of in vitro expanded CD8+ bladder cancer TILs promotes effector differentiation and function. […] Statistical significance in FIGS. 19A-C determined by repeated measures ANOVA. P values were corrected for multiple hypothesis testing using the Dunnett method. Statistical significance in FIG. 19E determined by Student's paired t test. *P≤0.05.
In FIG. 19, we investigated the impact of androgen receptor (AR) blockade on in vitro expanded CD8^+ tumor-infiltrating lymphocytes (TILs) from female patients with bladder cancer, focusing on effector differentiation and function. Panel A (FIG. 19A) illustrates the effect of dihydrotestosterone (DHT) treatment on the CD8+GZMB^high population within ex vivo expanded TILs. […] Panel D (FIG. 19D) assesses IFNγ production in CD8+ TILs after PMA/ionomycin/golgi block stimulation with or without enzalutamide. Lastly, Panel E presents the median fluorescence intensity (MFI) of IFN-gamma within the CD8+GZMB^high population. Statistical significance in Panels A-C was determined by repeated measures ANOVA, with P values corrected for multiple hypothesis testing using the Dunnett method. In Panel E (FIG. 19E), statistical significance was determined by Student's paired t test (*P≤0.05).
(In general: In flow cytometry, cells or beads pass a laser one at a time.)

Test [4] relates to MB49 mouse urothelial carcinoma cells. Kind of test: MB49 tumor growth in WT mice after daily oral enzalutamide. Format: in vivo. Particulars: male WT mice, enzalutamide 25 mg/kg daily oral gavage from Day 5, vs vehicle. An excerpt:
FIGS. 5A, 5B, 5C, 5D, 5E, 5F, 5G, 5H, 5I, and 5J show T cell intrinsic AR signaling contributes to male bias in tumor growth and accumulation of CD8^+ progenitor exhausted T cells. MB49 growth and circulating free testosterone levels in (5A) Four Core Genotype or (5B) WT mice three weeks post sham or surgical castration (cast). […] LNCaP lysates were used as the positive AR control. Rep, replicate. […] For tumor growths, mean area (mm^2)±SEM are reported, with statistical significance determined using the repeated measures two-way ANOVA. n=6-11 mice per group.
MB49 (a gift from C. Voelkel-Johnson from the Medical University of South Carolina) and BKL171 mouse urothelial carcinoma cells were cultured in Dulbecco's modified Eagle's medium with 10% heat-inactivated fetal bovine serum and 1% penicillin/streptomycin. 5×10^5 tumor cells were resuspended in 100 μL ice cold PBS for subcutaneous injection into the right flank of a mouse. For antibody-mediated T cell depletion experiments, mice were injected intraperitoneally with 200 μg of anti-mouse CD4 (Clone GK1.5, BioXCell) and/or CD8 neutralizing antibodies (Clone 53-6.7, BioXCell), followed by 100 μg thereafter on the indicated days. […] Tumor surface area (width×length mm^2) was measured using an electronic caliper starting on Day 4 post implantation.

In test [5] the test system is Tcf7. As to the kind of experiment: qPCR of naive CD8+ T cells stimulated with testosterone, type I IFN or both. Format: cell-based, mouse. On the procedure: See methods for details. […] Blue, Male; Pink, Female.
Mouse spleens and tumors were mechanically disrupted, with the latter additionally subjected to digestion with 1 mg/mL Collagenase D (Roche) for 30 min at 37° C. while shaken at 125 rpm. Excess volume of ice-cold PBS with 2% bovine serum albumin was used to inactivate the enzymatic activity. Red Blood Cell Lysis Buffer (BioLegend) was utilized on tissues before they were passed through 70 μm filters to prepare single cell suspensions. For cytokine production experiments, cells were re-stimulated by 50 ng/mL PMA (Sigma), 1 μg/mL Ionomycin (Sigma) and 1× Brefeldin A (BioLegend) in a 48-well plate for 2 hours at 37° C. For in vitro cultures, purified CD8^+ T cells were left untreated or stimulated with 50 ng/mL testosterone (Sigma) and/or 50 U/mL mouse IFN alpha A (PBL Assay Science). Cells were stained at 4° C. with eFluor506 fixable viability dye for 10 minutes (Invitrogen), followed by extracellular surface markers and FcR block concurrently for 30 minutes. […]
RNA was extracted from FACS/MACS-isolated CD8^+ T cells and reverse-transcribed using RNeasy Micro Kit (Qiagen) and SuperScript™ IV VILO™ Master Mix with ezDNase™ Enzyme (ThermoFisher Scientific), respectively. Quantitative PCR was performed with the following primers: […]

Regarding `C[C@]12CCC(=O)C[C@@H]1CC[C@@H]1[C@@H]2CC[C@]2(C)[C@@H](O)CC[C@@H]12` [DHT, dihydrotestosterone], the “Tcf7 promoter activity (Red Firefly luciferase)” value in test [1] is “stimulated Tcf7 promoter activity in an AR dependent manner”. In addition, in test [2], the proliferation entry was “decreased proliferation”.

Consider `CNC(=O)c1ccc(N2C(=S)N(c3ccc(C#N)c(C(F)(F)F)c3)C(=O)C2(C)C)cc1F` [enzalutamide], for which the “effector differentiation and function of CD8+ TILs (GZMB high frequency, PD-1 high TOX high frequency, IFNγ)” value in test [3] was “promoting effector differentiation and function”. For the same compound, the MB49 tumor growth result in test [4] was “partial protection against tumor growth”.

Take `C[C@]12CC[C@H]3[C@@H](CCC4=CC(=O)CC[C@@]43C)[C@@H]1CC[C@@H]2O` [testosterone]: in test [1], the “Tcf7 promoter activity (Red Firefly luciferase)” value is “stimulated Tcf7 promoter activity in an AR dependent manner”. Also, the “Ar expression (qPCR)” value in test [5] (female CD8+ T cells, testosterone) was “induction of Ar expression”. In addition, the “Tcf7 expression (qPCR)” value in test [5] (male CD8+ T cells, acute testosterone exposure, 6 hours) is listed as “significantly increased”. Further, the proliferation entry in test [2] is “decreased proliferation”.
